Read-outs that look alike come from different tables or passages of the source.
Legend:
[1] = test system: isolated guinea pig heart; assay: Effect on isolated heart from guinea pig, Langendorff (Example 16); settings: for direct heart effect relative to terbutaline: per se
Method: The isolated guinea pig heart was perfused according to Langendorff. The method used is described by Anden et al. [Acta Pharmacol. et Toxicol. 21, 247, (1964)]. Contractions in the heart were recorded by a force displacement transducer and a Grass polygraph model 5. The recovery of the heart was tested with (-) epinephrine between every dose of the substance tested. Terbutaline was used as reference.

guinea pig trachea = assay: Bronchospasmolytic effect in vitro (Example 13); settings: for bronchospasmolytic effect x (-)epinephrine: based on ED50-values, weight basis, Table 7; for bronchospasmolytic effect in vitro relative to terbutaline: per se
Method: The trachea from a guinea pig was dissected out and spirally cut. It was mounted in a water-jacketed bath (37°C.) in Krebs solution and aerated with oxygen (95%) and carbon dioxide (5%). Pilocarpine (2 μg/ml) was added. The load was adjusted to about 2 g and relaxations in the trachea were recorded by means of a Grass force displacement transducer and a Grass polygraph model 5 (see Example 5 above). The cumulative method was used (-)-Epinephrine was used as reference. The comparisons presented in Table 7 are based on ED50 -values.

[2] = test system: histamine-induced bronchospasm; assay: Bronchospasmolytic effect in the anesthetized cat, Konzett & Rossler (Example 14); type: in vivo; settings: i.v.; based on ED50-values; weight basis; Table 8
Method: Bronchospasmolytic effect was studied according to the method of Konzett & Rossler (see Example 5b above). Bronchospasm was induced by i.v. injections of histamine into the left jugular vein. Overflow was recorded by means of a Grass volume transducer and a Grass polygraph model 5. Changes in arterial mean pressure and heart rate, were continuously recorded during the experiment. Terbutaline was used as reference in all experiments. The comparisons are based on ED50 -values.

mice = assay: Toxicity study in mice (Example 18); type: in vivo; settings: indicated by higher oral toxicity
Method: (§1) The toxicity was studied in mice (NMRI, male, 18-28 g) 24 hours after i.v. and oral administration. The animals were observed during five days. No further deaths occurred.

[3] = Toxicity study in mice (Example 18); type: in vivo; settings: mouse, in vivo, mice (NMRI, male), 24 hours, read-out: LD 50 + Standard error
Method: as §1

[4] = test system: bronchoconstriction by histamine aerosol; assay: Protecting effect against histamine aerosol in guinea pigs (Example 15); type: in vivo, guinea pig; settings: for ED50: Cavia porcellus, read-out: ED50 (protecting 50 percent of the animals for more than 4 minutes)
Source text: Male guinea pigs (200--300 g) were used. Bronchoconstriction was produced by letting the animals inhale a histamine aerosol.

[5] = test system: isolated guinea pig auricle; assay: Dual bath preparation, effect on left auricle (Example 8a); settings: same bath
Method: The left auricle was dissected out and mounted together with spirally-cut trachea from the same animal in a 100 ml bath in Kreb's solution (37°C.) well aereated with a mixture of oxygen (95%) and carbon dioxide (5%). The auricle was electrically stimulated with square wave pulses from a Techtronic Stimulator (voltage 2-4; duration: 10 m sec; frequency 1 per second). This is, in general, the same procedure described above in Example 5c.
Using the dual bath preparation, tests were made of the effect on the trachea and auricle of KWD2025 (of the present invention) and of the known drugs KWD2109 and epinephrine. The drug to be tested was added to the bath in the predetermined amount and allowed to act upon the organs for 10 minutes.

isolated rabbit heart = assay: Effect on isolated heart, Langendorff preparation (Example 5d); settings: same procedure
Method: The effect of the compound of the present invention was also studied on isolated rabbit heart (Langendorff preparation) the method used as described by Anden et al. (Acta Pharmacol. et Toxicol., 21 (1964) page 247). In this procedure, the isolated heart is mounted in a Krebs solution and the test compound is injected into it. Measurements are continuously recorded of the rate and force of contraction.
The tests using epinephrine establish a standard of comparison to evaluate subsequent test compounds in the same preparation.

[6] = test system: histamine induced bronchoconstriction; assay: Bronchospasmolytic effect in vivo, Konzett and Rossler (Example 5b); design: species or system guinea pig; settings: measured as described above
Method: Orciprenaline and terbutaline were also tested in vivo according to the method described by Konzett and Rossler [Arch. Exp. Path. Pharmak. 195 (1940) page 71]. In the method of Konzett and Rossler, the animal is ventilated with a constant volume of air. When a certain pressure has been reached in the lung, the volume of air which is in excess of the pulmonary capacity will escape through the valve. This surplus of air is recorded. The testing compounds in the Konzett and Rossler method, bronchial contraction is provoked by administration of histamine. The histamine reduced the capacity of the airways, and the measured overflow increases. In order to see to what extent a test compound counteracts the histamine-induced bronchospasm, the animal is first given an injection of the test compound which is followed 3 minutes later by exposure to histamine.

[7] = test system: bronchospasm induced by histamine aerosol; assay: Protecting effect against histamine aerosol in intact guinea pigs (Example 7c); type: in vivo, guinea pig; settings: Cavia porcellus, m ± s.e., read-out: ED50 (protecting 50 per cent of the animals for more than 4 minutes)
Method: The compounds KWD2109 and KWD2025 have been compared in preventing bronchospasm induced by histamine aerosol in guinea pigs.
The drug was injected intraperitoneally 15 minutes (Table 2) or administered orally 30 minutes (Table 3) before histamine treatment. The dose of the drugs protecting 50 per cent of the animals for more than 4 minutes is denoted "ED50". In untreated animals only 1-2 percent will withstand the histamine aerosol for more than 4 minutes.
To study the duration of the effect, 2 mg/kg was administered orally to intact guinea pigs at different time intervals before the histamine treatment. Two series each including eleven groups of six animals was studied. The groups were tested in histamine aerosol 10, 20, 30, 40, 50, 60, 120, 180, 240, 300 and 360 minutes after the administration of the compound. The per cent of animals in each group protected more than 4 minutes and more than 10 minutes was determined.

[8] = Acute toxicity in mice (Example 9); settings: mouse, in vivo, iv, mice
[9] = test system: isolated guinea pig heart; assay: Effect on isolated guinea pig heart, Langendorff (Example 7d); settings: KWD2025 given index 1.0
Method: The isolated guinea pig heart was perfused according to Langendorff. The method used is described by Anden et al. (Acta. Pharmacol. et Toxicol. 21, 247, 1964). Contractions in the heart were recorded by means of a force displacement transducer and aa Grass polygraph Model 7. Epinephrine was used as reference. KWD2109 and KWD2025 were tested on the same preparation. The comparisons of effects were based on dose for 50 percent increase in chronotropic effect and 10 percent increase in inotropic effect.

[10] = test system: spirally cut trachea from the guinea pig; assay: Dual preparation test in vitro, effect on trachea (Example 5c); settings: slow infusion; 0.375 μg/min where stated; FIGS. 2-4
Source text: (§2) [This procedure is more fully described below in Example 5 (b)].
(§3) FIG. 2 illustrates the effect of epinephrine (EPE) and terbutaline on spirally cut trachea and right auricle from the guinea pig. Both preparations are dissected out from the same animal and run under identical experimental conditions;
(§4) Both preparations are dissected out from the same animal, and run under identical experimental conditions;
(§5) Both preparations are dissected out from the same animal and run under identical experimental conditions;
(§6) The relation between the heart stimulatory effect and bronchodilator effect was studied in vitro on auricle-trachea-preparation from the guinea pig in order to compare the effect on the heart and the effect on the bronchial muscle under identical experimental conditions. Both spontaneously bearing auricle and spirally-cut trachea were placed in the same bath in Krebs solution. Both preparations were taken from the same animal.
(§7) The compound to be tested was slowly infused into the bathing solution and the tension was measured for each of the auricle and trachael preparations.
(§8) In carrying out this dual preparation test, epinephrine was used as a reference. […] Infusion of epinephrine was made over a period of ten minutes. After washing and recovery, the test solution was infused in the same manner and the effect of the test compound was compared with the effect of epinephrine.

[11] = test system: right auricle from the guinea pig; assay: Dual preparation test in vitro, effect on auricle (Example 5c); settings: slow infusion; 0.375 μg/min where stated; FIGS. 2-4
Source text: as §2, §3, §4, §5, §6, §7, §8
Referring more specifically to FIG. 2, the upper portion of each chart thereof represents the tension continuously recorded of the auricle preparation (shaded area 1 for the effect of epinephrine on the auricle, ref. no. 2 for the effect of terbutaline infused at a rate of 0.2 μg/min on the auricle, and ref. no. 3 for the effect of terbutaline infused at a rate of 0.375μg/min on the auricle).

[12] = test system: arterial mean pressure, pulse pressure, heart rate, peripheral vascular resistance; assay: Haemodynamic studies in anesthetized cats (Example 17); type: in vivo, cat
Method: The haemodynamic effects of KWD2058 and terbutaline were studied in anesthetized cats after i.v. injection in the left femoral vein. Three experiments were done. The effects on arterial mean pressure, pulse pressure (right carotid artery) and heart rate were recorded.
To study the effect of the compounds on the peripheral vascular resistance, constant flow was arranged in the right hind limb on two cats by means of a Sigma motor pump connected to arteria femoralis. Injections were made intra-arterially and variations in the peripheral resistance were recorded as pressure changes.

With `CCC(=O)Oc1cc(OC(=O)CC)cc(C(O)CNC(C)(C)C)c1` (stereo not drawn) [KWD2057] the “effect on heart rate x terbutaline” value ([1]; Table 10) was 0.06, the “direct heart effect relative to terbutaline” value [1] was “much less direct heart effect” and the “bronchospasmolytic effect x (-)epinephrine” value (guinea pig trachea) was 0.4. For the same compound, the “bronchospasmolytic effect in vitro relative to terbutaline” value (guinea pig trachea) was “weaker bronchospasmolytic effect in vitro than terbutaline”, the “bronchospasmolytic effect x terbutaline” value [2] was 0.5 and the “oral absorption in comparison with terbutaline” value (shortened to “oral absorption in comparison”) (mice) was “improved oral absorption in comparison with terbutaline”. It also gave an LD50 at 24 h ([3]; iv) of 70 ± 4 mg/kg, an LD50 at 24 h ([3]; po) of 2200 mg/kg and an ED50 ([4]; ip, 0.25 h) of 0.2 mg/kg. For the same compound, the ED50 ([4]; po, 0.5 h) was 1 mg/kg.

For `Oc1cc(O)cc(C(O)CNC2CCC2)c1` (stereo not drawn) [KWD2025, 1-(3',5'-dihydroxyphenyl)-2-(cyclobutylamino)-ethanol], the “effect on force of contraction in auricle in concentrations relaxing the trachea” value [5] was “relaxed the trachea without affecting the auricle”, the “cardiac stimulatory effect relative to epinephrine” value (isolated rabbit heart) was “less than 0.1 times” and the “bronchospasmolytic effect relative to epinephrine” value [6] was “about 0.4 times”. The “bronchospasmolytic effect relative to orciprenaline” value [6] was “about 1.2 times”, the ED50 ([7]; ip, 0.25 h, i.p., 15 minutes before histamine-aerosol) was 0.6 ± 0.07 mg/kg and the ED50 ([7]; po, 0.5 h, peroral, 30 minutes before histamine-aerosol) was 1.7 ± 0.3 mg/kg. The LD50 [8] was 54 mg/kg and the “therapeutic index, bronchospasmolytic effect over effect on the heart (inotropic)” value [9] was 1.0.

In the case of `NC[C@H](O)c1ccc(O)c(O)c1` [norepinephrine, reference compound], the “effect on trachea (relaxation)” value [10] is reported as “without affecting the bronchial muscles” and the “effect on auricle (tension)” value [11] is reported as “strong effect on the heart muscle”.

For `CC(=O)Oc1cc(OC(C)=O)cc(C(O)CNC(C)(C)C)c1` (stereo not drawn) [KWD2037], the “effect on force of contraction x terbutaline” value ([1]; Table 10) was 0.03 ± 0.01, the “effect on heart rate x terbutaline” value ([1]; Table 10) was 0.05 ± 0.01 and the “direct heart effect relative to terbutaline” value [1] was “much less direct heart effect”. For the same compound, the “bronchospasmolytic effect x (-)epinephrine” value (guinea pig trachea) was 0.7, the “bronchospasmolytic effect in vitro relative to terbutaline” value (guinea pig trachea) was “weaker bronchospasmolytic effect in vitro than terbutaline” and the “bronchospasmolytic effect x terbutaline” value [2] was 0.7 ± 0.1. The “oral absorption in comparison” value (mice) was “improved oral absorption in comparison with terbutaline”, the LD50 at 24 h ([3]; iv) was 112 ± 5 mg/kg and the LD50 at 24 h ([3]; po) was 2100 mg/kg. It also gave an ED50 ([4]; ip, 0.25 h) of 0.7 mg/kg and an ED50 ([4]; po, 0.5 h) of 0.4 mg/kg.

In the case of `Br.CC(C)C(=O)Oc1cc(OC(=O)C(C)C)cc(C(O)CNC(C)(C)C)c1` (stereo not drawn) [KWD2058, 1-(3',5'-diisobutyryloxyphenyl)-2-(t-butylamino)-ethanol hydrobromide], the “effect on arterial mean pressure, pulse pressure, heart rate and peripheral vascular resistance relative to terbutaline” value ([12]; cat, summary) is reported as “about half”, the “arterial mean pressure, x terbutaline” value ([12]; i.v., anesthetized cats) is reported as 0.4+0.1 × terbutaline and the “heart rate, x terbutaline” value ([12]; i.v., anesthetized cats) is reported as 0.4±0.1 × terbutaline. The “pulse rate, x terbutaline” value ([12]; i.v., anesthetized cats, pulse pressure in text) was 0.4±0.1 × terbutaline, the “change in peripheral resistance, x terbutaline” value ([12]; intra-arterial, right hind limb, constant flow) was 0.4±0.1 × terbutaline and the “effect on heart rate” value ([1]; doses up to 100 μg) was “no effect”. For the same compound, the “direct heart effect relative to terbutaline” value [1] was “much less direct heart effect”, the “bronchospasmolytic effect x (-)epinephrine” value (guinea pig trachea) was 0.6 ± 0.2 and the “bronchospasmolytic effect in vitro relative to terbutaline” value (guinea pig trachea) was “weaker bronchospasmolytic effect in vitro than terbutaline”. For the same compound, the “bronchospasmolytic effect x terbutaline” value [2] was 1.0 ± 0.1, the “oral absorption in comparison” value (mice) was “improved oral absorption in comparison with terbutaline” and the LD50 at 24 h ([3]; iv) was 52 ± 4 mg/kg. The LD50 at 24 h ([3]; po) was 2150 mg/kg, the ED50 ([4]; 0.5 h, oral, 30 minutes before histamine) was 0.15 mg/kg and the ED50 ([4]; ip, 0.25 h, i.p., 15 minutes before histamine) was 1 mg/kg. The “protecting effect relative to terbutaline” value ([4]; oral) was 2.5 times and the “oral absorption in comparison” value ([4]; seen in oral ED50, Table 9) was “particularly good oral absorption in comparison with terbutaline”.

— patent US3937838A, “Orally active bronchospasmolytic compounds and their preparation” (priority 1966, dated 1976)
